Measured values as given in ChEMBL document CHEMBL1136052, “Identification of novel cyclooxygenase-2 selective inhibitors using pharmacophore models” (J Med Chem, 2002).
pIC50: −log10 of the molar value.

Legend:
[1] = molecular target: Prostaglandin G/H synthase 1 (Homo sapiens) (UniProt P23219); test: Percent inhibition of arachidonic acid induced TXB2 generation in isolated human platelets (Prostaglandin G/H synthase 1 cell assay) at 10 uM; format: functional
[2] = molecular target: Prostaglandin G/H synthase 1 (Homo sapiens) (UniProt P23219); test: Percent inhibition of arachidonic acid induced TXB2 generation in isolated human platelets (Prostaglandin G/H synthase 1 cell assay) at 10 uM.; format: functional
[3] = molecular target: T1, Prostaglandin G/H synthase 2 (Homo sapiens) (UniProt P35354); test: % Inhibition of Prostaglandin G/H synthase 2 activity was evaluated at 10 uM concentration, in human whole blood as LPS-induced PGE-2 generation; format: functional, tissue-based
T1 sequence (whole entry): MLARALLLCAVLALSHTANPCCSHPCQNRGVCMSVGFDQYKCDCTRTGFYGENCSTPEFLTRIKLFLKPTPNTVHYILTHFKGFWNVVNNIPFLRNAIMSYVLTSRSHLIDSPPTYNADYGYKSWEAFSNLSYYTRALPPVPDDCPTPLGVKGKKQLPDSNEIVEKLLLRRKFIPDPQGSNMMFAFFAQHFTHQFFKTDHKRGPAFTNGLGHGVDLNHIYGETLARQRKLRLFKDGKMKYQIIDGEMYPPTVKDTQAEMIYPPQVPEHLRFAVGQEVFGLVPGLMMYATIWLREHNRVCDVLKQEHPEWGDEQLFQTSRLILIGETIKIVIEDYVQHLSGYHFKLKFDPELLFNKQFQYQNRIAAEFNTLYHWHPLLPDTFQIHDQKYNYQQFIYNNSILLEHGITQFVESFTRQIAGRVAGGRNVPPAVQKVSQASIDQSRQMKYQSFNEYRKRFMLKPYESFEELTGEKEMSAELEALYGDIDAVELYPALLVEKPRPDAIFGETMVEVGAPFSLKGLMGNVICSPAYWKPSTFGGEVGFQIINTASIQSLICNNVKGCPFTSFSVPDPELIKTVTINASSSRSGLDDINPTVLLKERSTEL

[4] = molecular target: T2, Prostaglandin G/H synthase 2 (Homo sapiens, UniProt P35354); test: Inhibition of PGE-2 generation in LPS-stimulated human monocytes (Prostaglandin G/H synthase 2 assay)
T2 sequence (P35354 whole entry): T1 sequence (whole entry)

[5] = molecular target: Prostaglandin G/H synthase 1 (Homo sapiens) (UniProt P23219); settings: 100 uM

Prostaglandin G/H synthase 1 (Homo sapiens), sequence (P23219 whole entry): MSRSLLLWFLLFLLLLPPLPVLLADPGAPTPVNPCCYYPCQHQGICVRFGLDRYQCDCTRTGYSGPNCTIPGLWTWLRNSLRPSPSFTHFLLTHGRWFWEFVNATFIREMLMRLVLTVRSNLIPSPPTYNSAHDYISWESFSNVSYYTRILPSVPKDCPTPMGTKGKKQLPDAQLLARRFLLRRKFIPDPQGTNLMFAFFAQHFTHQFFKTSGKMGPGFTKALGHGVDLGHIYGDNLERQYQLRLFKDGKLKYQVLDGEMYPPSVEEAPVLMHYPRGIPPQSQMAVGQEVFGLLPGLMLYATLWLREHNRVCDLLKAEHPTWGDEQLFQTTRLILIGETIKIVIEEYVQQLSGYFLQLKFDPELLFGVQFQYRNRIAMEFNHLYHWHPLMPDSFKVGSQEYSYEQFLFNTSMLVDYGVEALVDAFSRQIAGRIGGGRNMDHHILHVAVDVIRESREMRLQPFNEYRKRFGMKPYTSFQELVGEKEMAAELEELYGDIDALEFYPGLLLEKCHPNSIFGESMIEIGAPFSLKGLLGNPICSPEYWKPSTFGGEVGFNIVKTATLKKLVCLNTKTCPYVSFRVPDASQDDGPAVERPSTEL

COC(=O)c1cc2cc(S(C)(=O)=O)ccc2n1Cc1ccc(Br)cc1
inhibition [1]: 25%

COC(=O)c1cc2cc(S(C)(=O)=O)ccc2n1C(=O)c1ccc(Cl)cc1
inhibition [2]: 16% | inhibition [3]: < 25% | pIC50 [4]: 6.14

COC(=O)c1cc2cc(S(C)(=O)=O)ccc2n1Cc1ccc(OC)cc1
inhibition [1]: 15% | inhibition [5]: 54%

COC(=O)c1cc2cc(S(C)(=O)=O)ccc2n1Cc1ccc([N+](=O)[O-])cc1
inhibition [1]: 0%

COC(=O)c1cc2cc(S(C)(=O)=O)ccc2n1C(=O)c1ccc(Br)cc1
inhibition [2]: 15%

COC(=O)c1cc2cc(S(C)(=O)=O)ccc2n1Cc1ccc(Cl)cc1
inhibition [1]: 19% | inhibition [5]: 25%

CS(=O)(=O)c1ccc2c(c1)cc(C(=O)O)n2Cc1ccc(Cl)cc1
inhibition [1]: 37%
